One experiment has as its target T1, NADPH oxidase 1 (Homo sapiens, UniProt Q9Y5S8).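 Further: Cell-based assay with luminescence read-out, IC50 derived from inhibitor dose-response curves; intracellular ROS from endogenous NOX1 in intact HT29 colon cancer cells; potency of inhibitors that lower the ROS luminescence signal.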
T1 sequence (Q9Y5S8 whole entry): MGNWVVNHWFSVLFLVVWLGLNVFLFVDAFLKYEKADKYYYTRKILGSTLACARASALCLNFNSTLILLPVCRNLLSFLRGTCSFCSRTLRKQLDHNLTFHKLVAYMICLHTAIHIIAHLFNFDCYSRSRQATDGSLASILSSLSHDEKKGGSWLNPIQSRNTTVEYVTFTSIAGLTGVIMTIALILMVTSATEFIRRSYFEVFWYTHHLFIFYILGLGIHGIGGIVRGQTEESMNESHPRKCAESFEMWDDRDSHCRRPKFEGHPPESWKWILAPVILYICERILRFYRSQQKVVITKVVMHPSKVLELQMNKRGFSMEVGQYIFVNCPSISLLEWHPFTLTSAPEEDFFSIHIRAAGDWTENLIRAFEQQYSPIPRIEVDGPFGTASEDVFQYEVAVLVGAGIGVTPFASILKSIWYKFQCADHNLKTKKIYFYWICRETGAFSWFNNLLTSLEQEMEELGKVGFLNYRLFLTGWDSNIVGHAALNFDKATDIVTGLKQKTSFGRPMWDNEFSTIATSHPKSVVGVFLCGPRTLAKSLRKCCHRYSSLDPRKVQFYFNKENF
It counts as functional, cell-based.

The nature of experiment [1]: Trypanosoma cruzi growth suppression in host cells – NIH3T3 host cells, beta-gal luminescence, confirmation (AID 2044).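 Further: intracellular parasites grown in NIH/3T3 mouse fibroblasts as host cells; luminescent beta-galactosidase reporter signal from transgenic T. cruzi replicating inside host cells; inhibitors lower the luminescence signal.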 It counts as functional, cell-based.
Experiment [2] in a line: NIH3T3 cell viability loss – ATP luminescence, mouse fibroblasts, counter-screen, dose response (AID 2010).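 Further: cells exposed to compound for about 90 hours before reading.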 It counts as functional, cell-based. (In general: Counterscreens check selectivity or assay interference.)
The nature of experiment [3]: viability loss in THP-1 monocytes – THP-1 cells, cytotoxicity control for Vif-APOBEC3G degradation inhibitor project, dose response (AID 1117359). It counts as functional. Conditions: THP-1.
The target of experiment [4] is Glyceraldehyde-3-phosphate dehydrogenase (Homo sapiens, UniProt P04406).
Glyceraldehyde-3-phosphate dehydrogenase, sequence (P04406 whole entry): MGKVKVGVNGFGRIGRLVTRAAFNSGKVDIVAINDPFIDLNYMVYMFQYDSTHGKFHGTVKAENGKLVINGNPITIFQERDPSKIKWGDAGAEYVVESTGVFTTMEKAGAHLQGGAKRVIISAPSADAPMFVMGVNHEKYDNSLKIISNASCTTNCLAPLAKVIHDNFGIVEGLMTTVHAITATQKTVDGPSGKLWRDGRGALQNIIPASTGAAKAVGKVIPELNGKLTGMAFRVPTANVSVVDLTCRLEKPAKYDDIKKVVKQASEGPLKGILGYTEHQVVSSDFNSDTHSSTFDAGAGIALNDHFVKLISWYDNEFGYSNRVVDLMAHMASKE
Experiment [5] deals with T2, Alkaline phosphatase, tissue-nonspecific isozyme (Homo sapiens, UniProt P05186).
T2 sequence (P05186 whole entry): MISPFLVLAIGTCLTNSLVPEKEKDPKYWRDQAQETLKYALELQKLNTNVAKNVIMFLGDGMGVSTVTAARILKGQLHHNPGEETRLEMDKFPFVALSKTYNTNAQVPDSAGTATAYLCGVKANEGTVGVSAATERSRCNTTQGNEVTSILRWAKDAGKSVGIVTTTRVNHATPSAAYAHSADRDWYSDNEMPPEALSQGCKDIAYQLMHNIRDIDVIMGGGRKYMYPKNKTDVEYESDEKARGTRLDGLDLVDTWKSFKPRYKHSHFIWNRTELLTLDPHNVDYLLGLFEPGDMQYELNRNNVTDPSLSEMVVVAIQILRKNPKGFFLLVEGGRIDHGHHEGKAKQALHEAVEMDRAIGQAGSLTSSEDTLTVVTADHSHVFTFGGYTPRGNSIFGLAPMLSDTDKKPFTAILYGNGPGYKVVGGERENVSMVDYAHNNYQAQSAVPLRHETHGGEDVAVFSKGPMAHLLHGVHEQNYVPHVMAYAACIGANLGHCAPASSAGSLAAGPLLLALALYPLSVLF
Nature of the experiment: potency against alkaline phosphatase TNAP – biochemical, luminescent, dose response, SAR follow-up (AID 1056).

Experiment [6] in a line: HEK-293T cell viability reduction – luminescence, B-cell screen hits, cytotoxicity control for BCR NF-kB inhibitor project, dose response (AID 489021).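 Further: HEK-293T cells carrying an NF-kB luciferase reporter; cells exposed to compound for about 14 hours before viability readout.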 It counts as functional, cell-based.
The target in experiment [7] is DNA dC->dU-editing enzyme APOBEC-3G (Homo sapiens, UniProt Q9HC16). The experiment in a line: Dose Response confirmation of small molecule APOBEC3G DNA Deaminase Inhibitors via a fluorescence-based single-stranded DNA deaminase assay. [Related pubchem assays (depositor defined):AID493012, AID493028]. It counts as functional.
DNA dC->dU-editing enzyme APOBEC-3G, sequence (Q9HC16 whole entry): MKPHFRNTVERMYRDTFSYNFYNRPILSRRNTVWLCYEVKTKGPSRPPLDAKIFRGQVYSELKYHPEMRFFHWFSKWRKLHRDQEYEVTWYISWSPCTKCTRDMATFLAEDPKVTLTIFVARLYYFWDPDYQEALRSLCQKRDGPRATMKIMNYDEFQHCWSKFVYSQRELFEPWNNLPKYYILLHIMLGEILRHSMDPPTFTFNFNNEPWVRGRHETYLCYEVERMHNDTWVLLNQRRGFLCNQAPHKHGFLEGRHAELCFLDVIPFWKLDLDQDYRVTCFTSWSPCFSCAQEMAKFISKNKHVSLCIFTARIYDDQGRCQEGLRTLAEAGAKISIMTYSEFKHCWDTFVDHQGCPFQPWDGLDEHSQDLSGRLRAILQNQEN
Experiment [8] in a line: HPDE-C7 pancreatic duct cell viability loss – fluorescence, HTS (AID 430). Conditions: Homo sapiens. It counts as functional, cell-based.
A short description of experiment [9]: viability loss of HPDE-C7K cells – cell-based, fluorescence, HTS, primary screen (AID 431). It counts as functional. Conditions: Homo sapiens.
Experiment [10] deals with T3, Rac GTPase-activating protein 1 (Homo sapiens, UniProt Q9H0H5).
T3 sequence (Q9H0H5 whole entry): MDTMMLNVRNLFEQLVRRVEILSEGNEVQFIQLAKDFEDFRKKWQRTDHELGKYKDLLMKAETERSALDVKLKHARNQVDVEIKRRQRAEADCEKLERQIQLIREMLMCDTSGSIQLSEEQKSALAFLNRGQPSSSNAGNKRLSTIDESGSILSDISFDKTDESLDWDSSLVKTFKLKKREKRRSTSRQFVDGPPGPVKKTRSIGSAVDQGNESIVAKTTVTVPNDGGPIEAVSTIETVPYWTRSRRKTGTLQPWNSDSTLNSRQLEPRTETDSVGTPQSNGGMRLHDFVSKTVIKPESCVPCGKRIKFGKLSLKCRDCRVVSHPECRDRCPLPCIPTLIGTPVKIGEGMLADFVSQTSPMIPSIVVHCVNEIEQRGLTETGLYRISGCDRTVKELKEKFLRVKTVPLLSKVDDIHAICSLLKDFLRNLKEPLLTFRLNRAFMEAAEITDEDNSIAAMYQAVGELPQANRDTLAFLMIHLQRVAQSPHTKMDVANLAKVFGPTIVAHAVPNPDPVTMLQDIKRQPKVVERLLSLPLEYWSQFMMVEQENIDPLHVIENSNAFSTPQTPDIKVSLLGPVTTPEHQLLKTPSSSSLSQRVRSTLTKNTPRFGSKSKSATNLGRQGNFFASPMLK
Nature of the experiment: blockers of MgcRacGAP-driven Rac1 GTP hydrolysis – biochemical, ADP Hunter fluorescence, primary and confirmatory, confirmation (AID 624330). It counts as functional.

Experiment [11] in a line: reduced cellular PGC1a acetyl-lysine signal – cell-based, cherry-picked samples, dose response (AID 720514).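 Further: potency may reflect raised or lowered acetylation signal.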 It counts as functional.
Experiment [12] can be described thus: viability loss in HeLa cells – cytotoxicity control for MgcRacGAP inhibitor project, dose response (AID 624300). It counts as functional.
In experiment [13] the target is T4, Microphthalmia-associated transcription factor (Homo sapiens, UniProt O75030).
T4 sequence (O75030 whole entry): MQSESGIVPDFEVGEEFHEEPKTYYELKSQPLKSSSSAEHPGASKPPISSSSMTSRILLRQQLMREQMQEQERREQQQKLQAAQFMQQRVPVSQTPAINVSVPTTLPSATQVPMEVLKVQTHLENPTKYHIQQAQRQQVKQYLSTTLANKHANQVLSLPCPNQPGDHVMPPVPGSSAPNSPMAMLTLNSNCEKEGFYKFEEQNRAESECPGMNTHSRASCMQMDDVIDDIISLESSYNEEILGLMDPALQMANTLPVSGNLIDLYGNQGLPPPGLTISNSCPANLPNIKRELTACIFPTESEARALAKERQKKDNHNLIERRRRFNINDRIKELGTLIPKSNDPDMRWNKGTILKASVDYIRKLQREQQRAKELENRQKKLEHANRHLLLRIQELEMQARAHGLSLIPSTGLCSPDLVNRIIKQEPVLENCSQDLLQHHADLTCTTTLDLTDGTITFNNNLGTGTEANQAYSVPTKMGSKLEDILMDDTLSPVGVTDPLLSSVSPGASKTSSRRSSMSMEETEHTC
The experiment in a line: reducers of TRPM1 reporter luminescence, concentration series – cell-based, SK-MEL-5, cherry-picked, set 3, MITF inhibitor project, dose response (AID 493073).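 Further: SK-MEL-5 melanoma cells with luciferase driven by the MITF target TRPM1 promoter.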 It counts as functional.

The next experiment concerns the target Nonstructural protein 1 (Influenza A virus, UniProt Q194T2). It counts as functional, Influenza A virus (A/California/07/2009(H1N1)).
The nature of experiment [14]: P. falciparum Dd2 growth inhibitors, dose response, SYBR Green, cherry-picked samples (AID 1159567). It counts as functional, cell-based.
The nature of experiment [15]: toxicity to human hepatoma HepG2 cells – cell-based, cherry-picked samples, cytotoxicity control, dose response (AID 1159577). It counts as functional.
Experiment [16] in a line: Dd2 malaria parasite growth inhibition potency – SYBR Green, dry powder samples, dose response (AID 1159566).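 Further: potency for growth inhibition with lower SYBR green DNA signal.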 It counts as functional, cell-based.
Experiment [17] is described as follows: toxicity to human HepG2 hepatoma cells – cell-based, plate reader, dry powder samples, cytotoxicity control, dose response (AID 1159569).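 Further: inhibitor potency with signal falling toward the positive control level.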 It counts as functional.
A short description of experiment [18]: growth inhibition of PfATP4-mutant resistant parasites – NITD609-resistant line, SYBR Green, dry powder, dose response (AID 1159571).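 Further: parasites synchronized at ring stage by sorbitol before testing.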 It counts as functional, cell-based.
Experiment [19] can be described thus: growth inhibition of yeast DHODH-expressing 3D7 parasites – SYBR Green, dry powder samples, dose response (AID 1159570).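 Further: parasite growth measured after 72 hours of compound exposure.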 It counts as functional, cell-based.

Calls of active or inactive are those of the source. Bounds are passed on as bounds.

Nonstructural protein 1, sequence (Q194T2 whole entry): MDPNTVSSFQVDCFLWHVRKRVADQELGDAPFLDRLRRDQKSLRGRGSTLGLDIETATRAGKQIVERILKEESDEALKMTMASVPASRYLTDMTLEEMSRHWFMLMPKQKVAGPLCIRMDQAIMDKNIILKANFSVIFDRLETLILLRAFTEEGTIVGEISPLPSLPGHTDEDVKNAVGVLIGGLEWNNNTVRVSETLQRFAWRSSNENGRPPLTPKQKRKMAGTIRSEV

Regarding `O=[N+]([O-])c1cccc(/C=N/Nc2c(Cl)cncc2Cl)c1`, the IC50 on NADPH oxidase 1 is given as > 17 µM (not active).

Regarding `O=C(O)c1nc(Cl)c(Cl)c(N/N=C/c2ccc(N3CCOCC3)c([N+](=O)[O-])c2)c1Cl`, the IC50 on NADPH oxidase 1 is > 17 µM (not active).

With `COc1ccc(-c2nc(CN3CCN(Cc4cccc(Cl)c4)CC3)c(C)o2)cc1`, the EC50 in experiment [1] is < 100 nM (active); in experiment [2], > 60 µM (not active); in the experiment “cells” it was 377 nM (active).

Regarding `COc1ccc(OC)c(S(=O)(=O)Nc2ccc(O)c3ccccc23)c1`, the CC50 in experiment [3] was 12.8 µM (active). Further, the IC50 in experiment [4] is > 100 µM (not active); in experiment [5], > 100 µM (inactive).

For the compound `CCOc1ccc(-c2cc(CCCC(=O)NCc3ccc(C)cc3)no2)cc1`, the IC50 in experiment [6] was > 80 µM (inactive).

On to `O=C(Oc1cccc2ccccc12)c1sc2ccccc2c1Cl`, for which the IC50 against NADPH oxidase 1 was > 17 µM (not active).

As to `O=C(Oc1ccccc1F)c1sc2ccccc2c1Cl`, the IC50 at NADPH oxidase 1 is recorded as > 17 µM (not active).

For the compound `COc1ccc(O)c(C(=O)C2c3ccccc3C(=O)N2c2ccc(C)cc2)c1` (stereo not given), the CC50 in [3] is > 40 µM (active). In addition, the IC50 in experiment [7] is 37.4 µM (active).

As for `CCc1c(C)nc2cc(-c3cc(OC)cc(OC)c3)nn2c1N1CCCC1`, the values for the EC50 in experiment [8] and in [9] were 10.5 µM (active) and 13 µM (active), respectively.

In the case of `COc1ccc(CN2CCCC(CNC(=O)c3ccc(F)cc3)C2)c(C)c1C` (stereo not given), the EC50 was < 100 nM (active) in experiment [1], > 30 µM (not active) in experiment [2] and 90 nM (active) in the experiment “cells”.

Take `O=C1/C(=C/c2ccccc2[N+](=O)[O-])COc2ccccc21`: the IC50 in experiment [10] is 101 µM (active). Besides, the AC50 was 4.77 µM (active) in [11] and 9.8 µM (active) in experiment [13]. For the same compound, the CC50 in experiment [12] is 100 µM (active).

For the compound `Cc1cc(N(C)C)ccc1N=Nc1ccc(N)cc1`, the results for the IC50 (at Nonstructural protein 1; in experiment [10]; in experiment [6]) were 21.4 µM (active), 29.3 µM (active) and > 80 µM (inactive), respectively.

For the compound `Cc1ccc([C@H]2C(C(=O)O)=CC[C@@H](c3cccc(Cl)c3)N2S(=O)(=O)c2ccc(C)cc2)cc1`, in experiment [3], the CC50 was > 40 µM (active).

As for `N#C[C@H]1[C@H](c2ccc(-c3ccccc3)cc2)[C@H](CO)N1C(=O)Cc1ccncc1`, the AC50 was 3.05 µM (active) in experiment [14] and > 36 µM (inactive) in experiment [15].

As for `COc1ccccc1C#Cc1ccc([C@H]2[C@@H](C#N)N(C(=O)C3CCC3)[C@H]2CO)cc1`, the AC50 in experiment [16] is 510 nM (active); in experiment [14] it was 1.36 µM (active); in [17], 37.3 µM (active); in experiment [18], 795 nM (active); in experiment [15], > 42 µM (inactive); in [19], 1.16 µM (active).

Turning to `CO[C@@H]1CN(C)C(=O)c2cc(NC(=O)c3ccc(-c4ccccc4)cc3)ccc2OC[C@@H](C)NC[C@@H]1C`, the values for the AC50 in experiment [14] and in experiment [15] were 7.25 µM (active) and 14.2 µM (active), respectively.

Turning to `COc1ccc2c3c(n(C)c2c1)[C@@H](CO)NCC31CCN(Cc2ccccc2Cl)CC1`, the AC50 is 2.44 µM (active) in experiment [14] and 18.3 µM (active) in experiment [15].

Turning to `COc1ccc(C(=O)CC(=O)O)c2c1C=CC(C)(C)O2` [URSINOIC ACID], the EC50 in experiment [8] and in experiment [9] was > 20 µM (not active) in each case.

Broadly, the IC50 is the concentration that inhibits the measured activity by half. Broadly, the EC50 is the concentration at which the effect is half-maximal. Broadly, the CC50 is the concentration giving 50% cytotoxicity. What is called AC50 is the concentration giving half of the maximal activity seen.
